Active and inactive are the calls of the source. Bounds are passed on as bounds.

For assay [1], the target named is T1, Ubiquitin-conjugating enzyme E2 N (Homo sapiens, UniProt P61088).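 Note: Dose-response confirmation in a TR-FRET assay detecting UBC13-driven polyubiquitin chain formation, inhibition measured.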
T1 sequence (P61088 whole entry): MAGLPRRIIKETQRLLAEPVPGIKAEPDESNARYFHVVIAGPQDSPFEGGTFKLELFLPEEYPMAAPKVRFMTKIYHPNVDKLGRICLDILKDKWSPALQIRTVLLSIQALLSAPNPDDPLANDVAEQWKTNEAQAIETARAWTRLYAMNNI
In kind it is functional.

Assay [2] addresses Prothrombin (Homo sapiens, UniProt P00734). The assay is described as follows: Thrombin 1536 HTS Dose Response Confirmation. [Related pubchem assays: 1046 (Thrombin 1536 HTS; hits were confirmed in this assay)]. In kind it is functional.
The target in assay [3] is T2, Fatty acid synthase (Homo sapiens, UniProt P49327). The assay is described as follows: inhibition of human FAS-TE enzyme activity – biochemical, endpoint fluorescence intensity, uHTS hits, dose response (AID 624327).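 Note: fluorescence from hydrolysis of an O-methyl fluorescein acyl ester substrate by the enzyme.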 Format: functional.
For assay [4], the target named is T2, Fatty acid synthase. Nature of the assay: inhibition of human FAS-TE enzyme activity – biochemical, kinetic fluorescence intensity, dose response (AID 624326).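 Note: rate of fluorescence rise from hydrolysis of a fluorogenic O-methyl fluorescein ester substrate.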 Format: functional.
Assay [5] is described as follows: intracellular Trypanosoma cruzi inhibitors in host cells – cell-based, plate reader, cherry-pick samples, set 3, dose response (AID 651818).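 Note: compounds incubated with infected cells for about four days.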 In kind it is functional.
Assay [6] in a line: Luminescence-based cell-based high throughput dose response assay to identify activators of the DAF-12 from the parasite S. stercoralis (ssDAF-12). Format: functional.
Assay [7] deals with Voltage-dependent T-type calcium channel subunit alpha-1H (Homo sapiens, UniProt O95180). In kind it is functional.
Assay [8] in a line: NIH-3T3 fibroblast cytotoxicity, dose response, cytotoxicity control, cell-based, fluorescence, Alamar Blue, secondary assay (AID 2327).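 Note: NIH-3T3 mouse fibroblasts cultured with fluconazole at 8 µg/mL.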 Format: functional.
A short description of assay [9]: fluconazole-exposed Candida albicans growth modulators – fluorescence, retest, confirmation (AID 2467). In kind it is functional, cell-based.
The target of assay [10] is T3, Adenosylmethionine-8-amino-7-oxononanoate aminotransferase (Mycobacterium tuberculosis, UniProt P9WQ81).
T3 sequence (P9WQ81 whole entry): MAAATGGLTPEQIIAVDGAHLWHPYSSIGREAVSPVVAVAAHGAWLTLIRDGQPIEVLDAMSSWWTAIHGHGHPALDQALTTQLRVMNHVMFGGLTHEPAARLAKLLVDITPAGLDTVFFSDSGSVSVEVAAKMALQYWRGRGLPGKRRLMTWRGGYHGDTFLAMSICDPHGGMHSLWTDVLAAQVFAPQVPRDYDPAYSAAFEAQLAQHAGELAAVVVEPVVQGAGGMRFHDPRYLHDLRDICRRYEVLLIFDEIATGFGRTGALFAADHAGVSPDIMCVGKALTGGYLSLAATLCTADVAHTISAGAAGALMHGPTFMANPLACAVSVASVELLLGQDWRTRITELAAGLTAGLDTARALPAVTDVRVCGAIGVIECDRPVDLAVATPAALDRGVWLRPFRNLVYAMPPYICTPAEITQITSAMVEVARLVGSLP
The assay is described as follows: Mycobacterium tuberculosis BioA enzyme inhibitor Measured in Biochemical System Using Plate Reader - 2163-02_Inhibitor_Dose_CherryPick_Activity. Format: functional, Mycobacterium tuberculosis UT205.

Assay [11] concerns BJ. Nature of the assay: BJ-TERT fibroblast viability loss – cell-based, RAS-independent, luminescence, dose response (AID 1933). In kind it is functional. Conditions: Homo sapiens.
Assay [12] relates to BJ. The assay is described as follows: cells. In kind it is functional, cell-based. As to conditions: Homo sapiens.
Assay [13] deals with BJ. Nature of the assay: BJ-TERT-LT-ST fibroblast viability loss – cell-based, RAS-independent, luminescence, dose response (AID 1935).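 Note: BJ fibroblasts immortalized with TERT plus LT and ST oncogenes.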 As to conditions: Homo sapiens. In kind it is functional.
Assay [14] can be described thus: DRD fibroblast viability loss – cell-based, non-viral oncogenic, luminescence, dose response (AID 1934). In kind it is functional. As to conditions: Homo sapiens.
The nature of assay [15]: Luminescence Cell-Based Dose Retest to Confirm Inhibitors of Cancer Stem Cells. [Related pubchem assays (depositor defined):AID2717, AID2721]. In kind it is functional. Conditions: Homo sapiens.
The target in assay [16] is T4, Protein skinhead-1 (Caenorhabditis elegans, UniProt P34707).
T4 sequence (P34707 whole entry): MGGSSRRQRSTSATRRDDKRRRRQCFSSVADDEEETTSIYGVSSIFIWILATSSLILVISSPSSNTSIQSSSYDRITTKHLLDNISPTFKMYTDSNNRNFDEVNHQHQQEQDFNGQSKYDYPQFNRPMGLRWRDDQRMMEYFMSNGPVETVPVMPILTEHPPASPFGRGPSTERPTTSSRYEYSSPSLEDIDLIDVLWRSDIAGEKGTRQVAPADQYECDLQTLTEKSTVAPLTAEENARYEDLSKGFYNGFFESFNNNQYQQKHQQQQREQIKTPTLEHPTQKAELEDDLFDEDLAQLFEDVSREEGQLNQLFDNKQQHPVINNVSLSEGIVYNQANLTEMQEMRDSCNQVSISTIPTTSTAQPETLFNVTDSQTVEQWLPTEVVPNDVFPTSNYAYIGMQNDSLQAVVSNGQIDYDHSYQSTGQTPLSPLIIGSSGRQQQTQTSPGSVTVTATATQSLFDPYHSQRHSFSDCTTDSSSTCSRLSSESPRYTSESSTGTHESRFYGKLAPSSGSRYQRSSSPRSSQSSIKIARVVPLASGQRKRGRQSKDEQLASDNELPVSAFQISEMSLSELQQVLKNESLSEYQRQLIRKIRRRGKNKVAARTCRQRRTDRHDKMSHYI
In kind it is functional.

Assay [17] is described as follows: luciferase reporter signal suppression in cells – H4 neuroglioma cells, luminescence, dose response (AID 1990). Format: functional, cell-based.
Assay [18] can be described thus: Luminescence Cell-Based Dose Response HTS to Identify Inhibitors of 5'UTR Stem-Loop Driven Prion Protein mRNA Translation in H4 Neuroglioblastoma Cells. [Related pubchem assays: 1827 (Project Summary), 1813 (Primary HTS)]. Format: functional.
The nature of assay [19]: alpha-synuclein stem-loop luciferase translation blockers – H4 neuroglioma cells, luminescence, confirmation (AID 1988). Format: functional, cell-based.
Assay [20] concerns the target T5, Carboxy-terminal domain RNA polymerase II polypeptide A small phosphatase 1 (Homo sapiens, UniProt Q9GZU7).
T5 sequence (Q9GZU7 whole entry): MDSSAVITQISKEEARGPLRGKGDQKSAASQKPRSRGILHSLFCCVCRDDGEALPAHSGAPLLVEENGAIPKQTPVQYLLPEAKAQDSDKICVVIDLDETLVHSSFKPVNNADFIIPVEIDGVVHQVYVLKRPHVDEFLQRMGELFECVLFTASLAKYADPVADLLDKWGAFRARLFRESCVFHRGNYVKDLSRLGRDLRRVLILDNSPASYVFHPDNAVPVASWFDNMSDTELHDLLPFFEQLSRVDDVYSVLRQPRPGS
The assay is described as follows: CTDSP1 inhibitors, concentration-response, biochemical, absorbance readout, ultra-high-throughput screen actives (AID 540297). In kind it is functional.

Assay [21] addresses T6, Caspase-6 (Homo sapiens, UniProt P55212).
T6 sequence (P55212 whole entry): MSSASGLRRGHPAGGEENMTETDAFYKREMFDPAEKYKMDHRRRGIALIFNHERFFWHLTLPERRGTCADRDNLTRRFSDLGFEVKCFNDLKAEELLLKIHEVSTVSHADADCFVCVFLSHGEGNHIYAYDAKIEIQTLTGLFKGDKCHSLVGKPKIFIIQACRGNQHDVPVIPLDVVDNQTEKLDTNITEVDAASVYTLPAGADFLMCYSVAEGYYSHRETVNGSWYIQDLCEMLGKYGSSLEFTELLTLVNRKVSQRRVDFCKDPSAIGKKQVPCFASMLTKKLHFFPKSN
The assay is described as follows: inhibition of CASP6 peptide cleavage – biochemical, VEID-R110 fluorescence, cherry-pick, dose response (AID 720632).

T2 sequence (P49327 whole entry): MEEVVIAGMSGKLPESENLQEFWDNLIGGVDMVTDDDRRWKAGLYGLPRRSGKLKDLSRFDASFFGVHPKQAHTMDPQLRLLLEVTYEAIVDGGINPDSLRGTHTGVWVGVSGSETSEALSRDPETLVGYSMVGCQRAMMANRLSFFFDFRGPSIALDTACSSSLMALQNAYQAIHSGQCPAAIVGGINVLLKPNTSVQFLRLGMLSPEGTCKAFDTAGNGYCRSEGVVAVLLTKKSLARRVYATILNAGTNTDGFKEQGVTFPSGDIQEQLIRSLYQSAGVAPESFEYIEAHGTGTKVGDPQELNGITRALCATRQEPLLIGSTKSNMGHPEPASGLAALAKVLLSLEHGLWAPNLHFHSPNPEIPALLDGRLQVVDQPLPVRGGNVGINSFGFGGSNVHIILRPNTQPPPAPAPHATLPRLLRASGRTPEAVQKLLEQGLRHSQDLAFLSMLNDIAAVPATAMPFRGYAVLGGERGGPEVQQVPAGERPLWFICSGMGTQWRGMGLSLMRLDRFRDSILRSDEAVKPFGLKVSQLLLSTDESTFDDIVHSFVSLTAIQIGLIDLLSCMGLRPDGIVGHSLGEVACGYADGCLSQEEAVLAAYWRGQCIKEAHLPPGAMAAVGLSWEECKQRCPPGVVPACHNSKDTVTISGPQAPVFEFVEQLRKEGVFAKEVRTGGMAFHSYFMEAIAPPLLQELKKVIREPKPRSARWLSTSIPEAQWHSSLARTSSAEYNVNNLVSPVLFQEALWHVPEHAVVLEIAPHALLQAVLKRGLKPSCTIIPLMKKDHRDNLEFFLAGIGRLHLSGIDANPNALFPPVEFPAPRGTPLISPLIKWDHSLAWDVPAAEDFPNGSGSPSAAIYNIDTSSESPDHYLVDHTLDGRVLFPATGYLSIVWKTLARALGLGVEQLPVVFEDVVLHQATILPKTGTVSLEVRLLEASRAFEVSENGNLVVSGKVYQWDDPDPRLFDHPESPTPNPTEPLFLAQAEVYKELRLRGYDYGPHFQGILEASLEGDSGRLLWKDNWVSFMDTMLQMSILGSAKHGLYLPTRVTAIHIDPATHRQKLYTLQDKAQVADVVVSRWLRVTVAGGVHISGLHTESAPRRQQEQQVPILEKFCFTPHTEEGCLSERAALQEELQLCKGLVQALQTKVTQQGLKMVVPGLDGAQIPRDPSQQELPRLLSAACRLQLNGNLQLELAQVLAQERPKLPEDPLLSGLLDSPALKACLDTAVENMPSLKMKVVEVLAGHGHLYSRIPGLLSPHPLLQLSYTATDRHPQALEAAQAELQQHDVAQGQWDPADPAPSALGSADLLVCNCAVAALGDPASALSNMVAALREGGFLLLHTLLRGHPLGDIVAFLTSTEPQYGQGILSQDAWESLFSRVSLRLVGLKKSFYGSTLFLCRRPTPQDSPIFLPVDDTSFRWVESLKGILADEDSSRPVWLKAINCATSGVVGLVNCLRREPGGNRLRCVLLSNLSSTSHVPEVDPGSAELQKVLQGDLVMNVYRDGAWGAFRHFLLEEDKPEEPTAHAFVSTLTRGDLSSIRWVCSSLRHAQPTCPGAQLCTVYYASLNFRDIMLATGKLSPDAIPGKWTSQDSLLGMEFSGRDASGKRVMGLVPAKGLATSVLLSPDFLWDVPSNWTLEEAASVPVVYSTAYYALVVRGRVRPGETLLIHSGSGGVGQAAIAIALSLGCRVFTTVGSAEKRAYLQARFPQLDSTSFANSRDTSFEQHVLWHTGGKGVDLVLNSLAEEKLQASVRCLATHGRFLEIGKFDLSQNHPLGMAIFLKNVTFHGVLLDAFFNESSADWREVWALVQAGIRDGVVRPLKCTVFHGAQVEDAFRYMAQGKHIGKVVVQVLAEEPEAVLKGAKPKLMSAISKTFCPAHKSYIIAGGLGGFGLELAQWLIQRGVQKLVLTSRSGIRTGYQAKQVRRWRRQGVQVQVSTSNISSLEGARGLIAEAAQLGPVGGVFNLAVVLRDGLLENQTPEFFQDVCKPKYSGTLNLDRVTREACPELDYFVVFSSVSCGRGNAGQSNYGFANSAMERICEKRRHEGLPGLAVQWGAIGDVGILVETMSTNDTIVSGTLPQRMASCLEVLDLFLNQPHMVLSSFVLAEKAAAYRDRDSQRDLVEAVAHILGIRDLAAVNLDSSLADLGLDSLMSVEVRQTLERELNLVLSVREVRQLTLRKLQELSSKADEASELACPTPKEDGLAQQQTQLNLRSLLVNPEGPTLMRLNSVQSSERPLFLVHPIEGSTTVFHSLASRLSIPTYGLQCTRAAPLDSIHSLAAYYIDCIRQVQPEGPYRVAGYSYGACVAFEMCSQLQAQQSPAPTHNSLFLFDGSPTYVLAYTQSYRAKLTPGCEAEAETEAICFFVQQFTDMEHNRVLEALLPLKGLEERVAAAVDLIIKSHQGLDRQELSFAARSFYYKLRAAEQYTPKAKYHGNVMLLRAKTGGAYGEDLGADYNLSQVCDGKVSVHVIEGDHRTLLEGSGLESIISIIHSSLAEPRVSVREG
Chain of Voltage-dependent T-type calcium channel subunit alpha-1H (O95180 whole entry): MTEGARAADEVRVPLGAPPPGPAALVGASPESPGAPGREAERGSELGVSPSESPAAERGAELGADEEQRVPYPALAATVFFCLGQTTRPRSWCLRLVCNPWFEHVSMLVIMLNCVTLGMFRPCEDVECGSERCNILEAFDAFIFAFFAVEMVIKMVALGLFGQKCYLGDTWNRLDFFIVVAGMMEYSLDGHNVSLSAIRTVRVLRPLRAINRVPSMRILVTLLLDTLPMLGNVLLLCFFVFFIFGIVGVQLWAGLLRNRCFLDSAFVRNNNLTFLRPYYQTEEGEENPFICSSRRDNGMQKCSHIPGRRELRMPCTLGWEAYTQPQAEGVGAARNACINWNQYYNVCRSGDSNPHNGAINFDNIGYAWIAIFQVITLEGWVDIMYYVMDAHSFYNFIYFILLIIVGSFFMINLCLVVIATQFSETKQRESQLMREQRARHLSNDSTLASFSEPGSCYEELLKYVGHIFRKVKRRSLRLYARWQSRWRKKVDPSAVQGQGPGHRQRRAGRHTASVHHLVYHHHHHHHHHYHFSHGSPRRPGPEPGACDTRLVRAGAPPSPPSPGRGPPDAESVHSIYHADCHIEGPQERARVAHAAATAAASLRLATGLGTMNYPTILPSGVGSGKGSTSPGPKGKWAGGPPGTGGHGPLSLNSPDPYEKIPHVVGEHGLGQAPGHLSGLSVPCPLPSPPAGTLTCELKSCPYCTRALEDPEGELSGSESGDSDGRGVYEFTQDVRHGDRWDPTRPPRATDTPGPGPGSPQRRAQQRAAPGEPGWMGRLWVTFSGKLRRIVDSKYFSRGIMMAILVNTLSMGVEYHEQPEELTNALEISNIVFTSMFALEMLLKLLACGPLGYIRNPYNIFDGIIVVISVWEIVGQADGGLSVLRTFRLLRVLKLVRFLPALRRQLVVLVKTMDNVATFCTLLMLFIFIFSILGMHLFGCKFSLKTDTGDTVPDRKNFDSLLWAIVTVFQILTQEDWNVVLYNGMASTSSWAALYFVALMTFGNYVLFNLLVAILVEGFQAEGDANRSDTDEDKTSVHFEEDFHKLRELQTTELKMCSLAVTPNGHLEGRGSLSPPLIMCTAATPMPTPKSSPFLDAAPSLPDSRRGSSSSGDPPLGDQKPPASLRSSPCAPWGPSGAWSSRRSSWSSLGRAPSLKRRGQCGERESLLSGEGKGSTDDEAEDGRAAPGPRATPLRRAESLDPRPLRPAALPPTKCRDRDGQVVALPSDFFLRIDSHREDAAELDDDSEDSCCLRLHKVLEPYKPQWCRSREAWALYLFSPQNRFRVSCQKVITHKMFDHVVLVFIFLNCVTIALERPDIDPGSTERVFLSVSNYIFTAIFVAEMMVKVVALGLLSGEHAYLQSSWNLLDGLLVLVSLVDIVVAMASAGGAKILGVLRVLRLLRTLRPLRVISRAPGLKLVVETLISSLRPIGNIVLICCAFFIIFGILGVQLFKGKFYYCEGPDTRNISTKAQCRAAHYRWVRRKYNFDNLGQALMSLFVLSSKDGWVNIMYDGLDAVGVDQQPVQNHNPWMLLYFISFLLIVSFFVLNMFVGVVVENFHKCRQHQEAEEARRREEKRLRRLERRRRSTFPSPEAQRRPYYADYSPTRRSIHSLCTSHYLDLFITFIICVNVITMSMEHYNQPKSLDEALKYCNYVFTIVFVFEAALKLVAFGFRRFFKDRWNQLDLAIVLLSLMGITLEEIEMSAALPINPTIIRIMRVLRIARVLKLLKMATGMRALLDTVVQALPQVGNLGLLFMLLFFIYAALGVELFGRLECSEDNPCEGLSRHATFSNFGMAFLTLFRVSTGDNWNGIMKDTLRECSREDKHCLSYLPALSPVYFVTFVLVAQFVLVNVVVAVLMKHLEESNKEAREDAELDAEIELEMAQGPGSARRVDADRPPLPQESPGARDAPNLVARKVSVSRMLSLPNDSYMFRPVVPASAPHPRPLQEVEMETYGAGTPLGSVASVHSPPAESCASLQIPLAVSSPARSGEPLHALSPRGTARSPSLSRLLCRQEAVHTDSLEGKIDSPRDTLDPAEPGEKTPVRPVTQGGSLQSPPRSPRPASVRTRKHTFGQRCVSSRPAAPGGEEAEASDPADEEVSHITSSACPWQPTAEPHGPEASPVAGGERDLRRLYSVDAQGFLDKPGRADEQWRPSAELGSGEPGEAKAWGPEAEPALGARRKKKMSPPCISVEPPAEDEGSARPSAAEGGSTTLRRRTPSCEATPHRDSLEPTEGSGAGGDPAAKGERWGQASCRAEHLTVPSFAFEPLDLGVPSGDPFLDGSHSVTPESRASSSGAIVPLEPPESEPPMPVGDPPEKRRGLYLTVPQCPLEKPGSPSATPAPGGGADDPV

Consider `NC(=S)N=Nc1c(O)n(CCCl)c2ccc(Br)cc12`, for which the IC50 in assay [1] was > 20 µM (inactive).

In the case of `CSCCC(NC(=O)c1cccc(C)c1)C(=O)OCC(=O)NC(=O)c1cccn1C` (configuration not stated), in assay [2], the IC50 is 39 µM (active).

As for `O=[N+]([O-])c1ccc(Sc2n[nH]c(-c3ccc(Cl)cc3Cl)n2)nc1`, the IC50 is 7.15 µM (active) in assay [3] and 8.25 µM (active) in assay [4].

In the case of `C[C@H]1CN([C@@H](C)CO)C(=O)c2cccc(NC(=O)Nc3ccccc3)c2O[C@H]1CN(C)C(=O)Nc1ccc2c(c1)OCO2`, the AC50 in assay [5] was 20 µM (inactive).

Regarding `Nc1nc(=O)n(C2CC(O)C(CO)O2)cc1Cl` (configuration not stated), the IC50 in [6] is > 67.6 µM (inactive).

With `O=C(CSc1ncn(-c2ccccc2)n1)Nc1ccc(Br)cn1`, the EC50 in assay [7] is 5.67 µM (active).

Take `Cc1ccc(N2C(S)=NC3c4ccccc4OC2(C)C3C(=O)N(C)C)cc1` (configuration not stated): the IC50 in [2] is > 50 µM (inconclusive).

As for `CCOc1ccc(N(C(=O)c2snc(C(N)=O)c2N)C(C(=O)NCC2CCCO2)c2ccc(C)o2)cc1` (configuration not stated), in assay [1], the IC50 is > 20 µM (inactive).

`O=C(C[n+]1cc(-c2ccc(Cl)cc2)n2c1CCC2)N1c2ccccc2Sc2ccccc21`: the EC50 in [8] is > 160 µM (inconclusive); in [9], > 38 µM (not active). Moreover, the AC50 in assay [10] is 6.34 µM (active).

For `C[C@@H]1CN([C@@H](C)CO)C(=O)Cc2cc(NC(=O)Nc3ccccc3)ccc2O[C@@H]1CN(C)Cc1ccc(C(=O)Nc2ccccc2N)cc1`, the AC50 in [5] was 2.04 µM (active).

As to `CCOc1cc(C2C(C#N)=C(N)OC(C)=C2C(C)=O)c(Br)c(Br)c1OC(C)C` (configuration not stated), the EC50 is 2.17 µM (active) in assay [11], 14 µM (inconclusive) in [12], 2.72 µM (inconclusive) in assay [13] and 3.46 µM (active) in [14].

Consider `CCC(C)(C)NC(=O)CN(C(=O)c1snc(C(N)=O)c1N)c1ccc2c(c1)OCCO2`, for which, in assay [1], the IC50 is > 20 µM (inactive).

On to `COc1cc(OC)cc(-c2sc3ccc(OC)cc3c2C#CC2(N)CCCCC2)c1`, for which the AC50 in assay [15] is 2.96 µM (active). The IC50 in [1] was > 20 µM (inactive).

In the case of `C[C@@H]1CN([C@@H](C)CO)C(=O)c2cccc(NS(=O)(=O)c3ccc(Cl)cc3)c2O[C@@H]1CN(C)Cc1ccc(Oc2ccccc2)cc1`, in assay [5], the AC50 was 4.87 µM (active).

In the case of `COc1ccc(-c2nc3cnccn3c2Nc2ccc3c(c2)OCO3)cc1`, the AC50 in assay [10] was 0.702 µM (active).

For `O=C(Nc1cccc(F)c1)C1CCN(c2nnnn2-c2ccccc2)CC1`, the EC50 in [7] is 53.6 µM (active).

With `O=C(CSc1ccc(Cl)cc1)N1CCN(c2ncc(C(F)(F)F)cc2Cl)CC1`, the EC50 in [7] is 5.86 µM (active). In addition, the IC50 in [16] was > 100 µM (inactive).

Regarding `Cc1nc2sc(C(c3ccc(Cl)cc3)N3CCN(c4ccccc4F)CC3)c(O)n2n1` (configuration not stated), in [10], the AC50 is 1.69 µM (active).

Take `O=C(CSc1nnc(-c2ccncc2)n1-c1ccc(Cl)cc1)NCc1cccs1`: the AC50 in [10] was 9.86 µM (active).

Take `C[C@@H]1CN([C@H](C)CO)C(=O)c2cc(NC(=O)Nc3ccc4c(c3)OCO4)ccc2O[C@@H]1CN(C)Cc1ccc(-c2ccccc2)cc1`: the AC50 in assay [5] is 2.72 µM (active).

With `CCN(Cc1ccccc1)C(=O)CCc1nc(-c2ccc(C)cc2)no1`, in [7], the EC50 was 4.8 µM (active).

For the molecule `CC(=O)CSc1nnc(CSc2ncccn2)n1C1CCCCC1`, the AC50 in assay [10] was 13.9 µM (active).

Take `CCN(CC)S(=O)(=O)c1ccc2c(c1)c(=O)c(C(=O)NCc1cccs1)cn2C`: the IC50 in assay [2] is 0.0331 µM (active).

Turning to `C[C@H](CO)N1C[C@H](C)[C@H](CN(C)Cc2ccc(Cl)c(Cl)c2)Oc2c(NC(=O)c3nc4ccccc4s3)cccc2C1=O`, the AC50 in [5] was 6.38 µM (active).

Take `O=C(NCc1ccc(F)cc1)C(C(=O)NCc1ccc(F)cc1)c1ncc(C(F)(F)F)cc1Cl`: the IC50 in [3] is 7.79 µM (active); in assay [4], 11.8 µM (active).

Turning to `CCCc1nc(NC(C)=O)c(C#N)c(-c2ccco2)c1CC`, the IC50 in assay [2] was > 50 µM (not active).

Turning to `COc1ccccc1N1CCN(CC(O)COc2cccc3ccccc23)CC1` (configuration not stated) [NAFTOPIDIL], the EC50 in [7] was 3.72 µM (active).

For the molecule `CCOc1ccc(-n2c(SCc3ccc([N+](=O)[O-])cc3)nnc2-c2ccccc2)cc1`, the EC50 is 15.5 µM (active) in [17], 69.4 µM (active) in [18] and 24.9 µM (active) in assay [19]. Besides, the IC50 in assay [3] was 6.83 µM (active); in assay [4], 5.2 µM (active).

With `COc1ccc(OCC(=O)N2CCN(Cc3ccc(SC)cc3)CC2)cc1`, the IC50 in assay [2] is > 50 µM (not active).

In the case of `COc1ccc(NC(=O)Nc2ccc3c(c2)CC(=O)N([C@@H](C)CO)C[C@H](C)[C@@H](CN(C)Cc2ccc(C(F)(F)F)cc2)O3)cc1`, in assay [5], the AC50 is 5.55 µM (active).

For the molecule `O=C(NNC(=O)c1ccccc1Br)c1ccc2nc[nH]c2c1`, in assay [20], the IC50 is 7.34 µM (active). Besides, the AC50 in [21] was 23.6 µM (active).

Consider `O=C(COC(=O)c1cc([N+](=O)[O-])ccc1N1CCOCC1)c1ccc(F)cc1`, for which the concentration for half-maximal inhibition (IC50) is 5.45 µM (active) in [3] and 9.03 µM (active) in [4].

Values taken from ChEMBL document CHEMBL1201862, “PubChem BioAssay data set” (2004).
